Reference: patent US10039806B2, “Methods and compositions for treating antiprogestin-resistant cancers” (Fundación Sales, priority 2011, dated 2018)

Experiments:
59-HI tumors = assay: Constitutive-resistant tumor transplanted s.c. in BALB/c mice; type: in vivo, mouse; settings: RU-486 12 mg/kg/day s.c.; 5azadC 1 mg/kg every other day i.p.; 13 days
Experimental: (§1) C4-2-HI, 59-HI, and C4-HIR tumors were transplanted s.c nearby the mammary gland 4th in syngenic mice, and measured every 2 days (length and width). Treatments were initiated when the tumors were palpable. […] The mice were inoculated intraperitoneally (i.p.) with 0.75 mg/kg 5azadC (for C4-2-HI and C4-HIR tumors) or 1 mg/kg 5azadC (for 59-HI tumors) every other day. All the experiments were repeated twice using five mice per group. The animals were euthanized after 13 days of treatment, and tumor samples were removed and frozen at −80° C. or fixed in 10% formaldehyde.
(§2) Cytosolic or nuclear extracts were processed for western blots as described previously. The cells were lysed using Mammalian Protein Extraction Reagent (Pierce, Rockford, Ill.) according the manufacturer's instructions. The western blot membranes were incubated with antibodies against PR (C-19, Santa Cruz Biotech, CA, or Ab-7, Neomarkers, Lab Vision Corp, Fremont, Calif.), PRB (Ab-6, Neomarkers), ERKs (SC-94, Santa Cruz Biotech), E-Cad (610182, BD), Actin (1-19, Santa Cruz Biotech), DnmtI, Dnmt3a and Dnmt3b (H-300, H-295, and H-230, respectively, Santa Cruz Biotech), RARβ (SC-14028, Santa Cruz Biotech), PTEN Ab32199, Abcam), p16 (SC-1207, Santa Cruz Biotech), Rb (SC-50, Santa Cruz Biotech), or glucocorticoid receptors (GRs) (SC-1004, Santa Cruz Biotech) overnight at 4° C., at a concentration of 2 μg/ml in PBST (0.8% NaCl, 0.02% KCl, 0.144% Na2PO4, 0.024% KH2PO4, pH 7.4, 0.1% Tween 20). The band intensities from 3 to 4 different tumor samples indifferent western blots were quantified using Image Quant software.
(§3) Sections of formalin-fixed, paraffin-embedded tissue were processed as previously described and stained with the PRA-specific antibody (C-19) using the avidin-biotin-peroxidase complex technique (Vectastain Elite ABC kit; Vector), as described previously.
(§4) H&E stained sections of livers, spleens, and kidneys from the 5azadC-treated mice (1 mg/kg or 0.75 mg/kg/every other day; n=5) were studied by an expert mouse pathologist. The percentage of tumor stoma versus tumor parenchyma was quantified with the ImageJ software in treated and untreated tumors. The stromal area in relation to the total tumor area was calculated in five representative fields of each sample, using 400× magnification, in three different tumor samples of each group, and the mean±SEM was calculated. Mitotic and apoptotic indices were counted in 10 and 15 high-power fields (HPFs), respectively, of each section, using 1000× magnification, and expressed as the mean±SEM of the percentage of the ratios between the total number of events (mitosis or apoptosis) and the total cell number per HPF. Mitotic figures were identified morphologically by the condensed “hairy” aspect of the chromosomes. Morphological identification of apoptosis was performed according to criteria previously reported, which correlated with the deoxynucleotidyl transferase mediated dUTP-biotin nick end labeling (TUNEL) method.
as §1, with “C4-2-HI” for “C4-2-HI, 59-HI,”, “59-HI” for “C4-HIR”, “every other day” for “(for C4-2-HI”, “s.c. with” for “C4-HIR tumors) or”, “TSA” for “5azadC (for 59-HI tumors)”, “−80 C” for “−80° C.”

C4-2-HI tumors = assay: as above; type: in vivo, mouse
Experimental: as §1, §2, §3, §4
as §1, with “C4-2-HI” for “C4-2-HI, 59-HI,”, “59-HI” for “C4-HIR”, “every other day” for “(for C4-2-HI”, “s.c. with” for “C4-HIR tumors) or”, “TSA” for “5azadC (for 59-HI tumors)”, “−80 C” for “−80° C.”

CC#C[C@]1(O)CC[C@H]2[C@@H]3CCC4=CC(=O)CCC4=C3[C@@H](c3ccc(N(C)C)cc3)C[C@@]21C [RU-486, mifepristone]
tumor growth (59-HI tumors): no significant differences
tumor growth (C4-2-HI tumors; RU-486 12 mg/kg/day s.c., 5azadC 0.75 mg/kg every other day i.p., 13 days): no significant differences
tumor growth, MIF alone (C4-2-HI tumors; tumor only expresses PR-B, FIG. 15): stimulated
